Results from the supplement of paper PMC11451515.

Test system: NOMO1
Experiment: cell viability relative to DMSO control; higher = less cytotoxic
Settings: 48 h
Method in brief: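 Cells were incubated for 48 h at 37°C before CellTiter-Glo One luminescence was read. The cells were NOMO1 or SEM (500 cells/well) or P12-Ichikawa (1000 cells/well) leukemia cells, adapted for at least four passages in each medium and seeded in 1536-well plates (5 μl). Dosing used library compounds in DMSO applied by pin over 11 threefold points, 47 μM to 0.79 nM. Viability is the per-plate percentage of DMSO wells, with cell-free wells as background.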

[1] = HPLM + 10% dialyzed FBS, 0.000781 µM
[2] = HPLM + 10% dialyzed FBS, 0.00234 µM
[3] = HPLM + 10% dialyzed FBS, 0.00702 µM
[4] = HPLM + 10% dialyzed FBS, 0.0211 µM
[5] = HPLM + 10% dialyzed FBS, 0.0632 µM
[6] = HPLM + 10% dialyzed FBS, 0.19 µM
[7] = HPLM + 10% dialyzed FBS, 0.569 µM
[8] = HPLM + 10% dialyzed FBS, 1.71 µM
[9] = HPLM + 10% dialyzed FBS, 5.12 µM
[10] = HPLM + 10% dialyzed FBS, 15.4 µM
[11] = HPLM + 10% dialyzed FBS, 46.1 µM
[12] = RPMI 5 mM glucose + 10% FBS, 0.000781 µM
[13] = RPMI 5 mM glucose + 10% FBS, 0.00234 µM
[14] = RPMI 5 mM glucose + 10% FBS, 0.00702 µM
[15] = RPMI 5 mM glucose + 10% FBS, 0.0211 µM
[16] = RPMI 5 mM glucose + 10% FBS, 0.0632 µM
[17] = RPMI 5 mM glucose + 10% FBS, 0.19 µM
[18] = RPMI 5 mM glucose + 10% FBS, 0.569 µM
[19] = RPMI 5 mM glucose + 10% FBS, 1.71 µM
[20] = RPMI 5 mM glucose + 10% FBS, 5.12 µM
[21] = RPMI 5 mM glucose + 10% FBS, 15.4 µM
[22] = RPMI 5 mM glucose + 10% FBS, 46.1 µM
[23] = RPMI 5 mM glucose + 10% dialyzed FBS, 0.000781 µM
[24] = RPMI 5 mM glucose + 10% dialyzed FBS, 0.00234 µM
[25] = RPMI 5 mM glucose + 10% dialyzed FBS, 0.00702 µM
[26] = RPMI 5 mM glucose + 10% dialyzed FBS, 0.0211 µM
[27] = RPMI 5 mM glucose + 10% dialyzed FBS, 0.0632 µM
[28] = RPMI 5 mM glucose + 10% dialyzed FBS, 0.19 µM
[29] = RPMI 5 mM glucose + 10% dialyzed FBS, 0.569 µM
[30] = RPMI 5 mM glucose + 10% dialyzed FBS, 1.71 µM
[31] = RPMI 5 mM glucose + 10% dialyzed FBS, 5.12 µM
[32] = RPMI 5 mM glucose + 10% dialyzed FBS, 15.4 µM
[33] = RPMI 5 mM glucose + 10% dialyzed FBS, 46.1 µM

OC1=CC=C(C=C1)\C2=C\OC3=C(C=CC(=C3)O)C2=O
cell viability [1]: 97.3% | cell viability [2]: 92.8% | cell viability [3]: 102% | cell viability [4]: 119% | cell viability [5]: 118% | cell viability [6]: 99.6% | cell viability [7]: 105% | cell viability [8]: 106% | cell viability [9]: 104% | cell viability [10]: 93.9% | cell viability [11]: 99.6% | cell viability [12]: 93.1% | cell viability [13]: 91.6% | cell viability [14]: 89% | cell viability [15]: 93.4% | cell viability [16]: 119% | cell viability [17]: 96.2% | cell viability [18]: 92.4% | cell viability [19]: 86.8% | cell viability [20]: 103% | cell viability [21]: 100% | cell viability [22]: 94.2% | cell viability [23]: 98.8% | cell viability [24]: 108% | cell viability [25]: 84.2% | cell viability [26]: 107% | cell viability [27]: 112% | cell viability [28]: 96.1% | cell viability [29]: 105% | cell viability [30]: 96.6% | cell viability [31]: 102% | cell viability [32]: 89% | cell viability [33]: 94.5%

COc1cc2c(cc1-c1c(C)noc1C)ncc1[nH]c(=O)n([C@H](C)c3ccccn3)c12
cell viability [12]: 122% | cell viability [13]: 110% | cell viability [14]: 114% | cell viability [15]: 115% | cell viability [16]: 111% | cell viability [17]: 99.8% | cell viability [18]: 108% | cell viability [19]: 98.2% | cell viability [20]: 30.8% | cell viability [21]: 30.5% | cell viability [22]: 22% | cell viability [23]: 114% | cell viability [24]: 124% | cell viability [25]: 98.3% | cell viability [26]: 118% | cell viability [27]: 124% | cell viability [28]: 117% | cell viability [29]: 118% | cell viability [30]: 102% | cell viability [31]: 30.1% | cell viability [32]: 35.6% | cell viability [33]: 22.7%

CN(C)c1ccc(O)c2c1C[C@H]1C[C@H]3[C@H](N(C)C)C(O)=C(C(N)=O)C(=O)[C@@]3(O)C(O)=C1C2=O
cell viability [1]: 103% | cell viability [2]: 105% | cell viability [3]: 105% | cell viability [4]: 118% | cell viability [5]: 117% | cell viability [6]: 125% | cell viability [7]: 99.8% | cell viability [8]: 111% | cell viability [9]: 101% | cell viability [10]: 100% | cell viability [11]: 113% | cell viability [12]: 103% | cell viability [13]: 98% | cell viability [14]: 109% | cell viability [15]: 98.1% | cell viability [16]: 114% | cell viability [17]: 122% | cell viability [18]: 107% | cell viability [19]: 109% | cell viability [20]: 101% | cell viability [21]: 98.5% | cell viability [22]: 107% | cell viability [23]: 96% | cell viability [24]: 93.6% | cell viability [25]: 101% | cell viability [26]: 88.7% | cell viability [27]: 95.3% | cell viability [28]: 96% | cell viability [29]: 92.8% | cell viability [30]: 102% | cell viability [31]: 97.3% | cell viability [32]: 98.9% | cell viability [33]: 113%

CN[S+](=O)([O-])Cc1ccc2[nH]cc(CCN(C)C)c2c1
cell viability [1]: 116% | cell viability [2]: 124% | cell viability [3]: 118% | cell viability [4]: 124% | cell viability [5]: 130% | cell viability [6]: 130% | cell viability [7]: 148% | cell viability [8]: 136% | cell viability [9]: 128% | cell viability [10]: 135% | cell viability [11]: 122% | cell viability [12]: 106% | cell viability [13]: 124% | cell viability [14]: 110% | cell viability [15]: 118% | cell viability [16]: 110% | cell viability [17]: 120% | cell viability [18]: 117% | cell viability [19]: 109% | cell viability [20]: 129% | cell viability [21]: 139% | cell viability [22]: 111% | cell viability [23]: 113% | cell viability [24]: 118% | cell viability [25]: 114% | cell viability [26]: 122% | cell viability [27]: 118% | cell viability [28]: 123% | cell viability [29]: 122% | cell viability [30]: 120% | cell viability [31]: 118% | cell viability [32]: 129% | cell viability [33]: 129%

CC1(C)CC(=O)c2c(C(F)(F)F)nn(-c3ccc(C(N)=O)c(NC4CCC(O)CC4)c3)c2C1 (stereo not given)
cell viability [1]: 83.4% | cell viability [2]: 77.1% | cell viability [3]: 69% | cell viability [4]: 72.5% | cell viability [5]: 96.9% | cell viability [6]: 58.7% | cell viability [7]: 16% | cell viability [8]: 14.1% | cell viability [9]: 15.1% | cell viability [10]: 15.6% | cell viability [11]: 78.3% | cell viability [12]: 86.5% | cell viability [13]: 81.8% | cell viability [14]: 82.1% | cell viability [15]: 84.2% | cell viability [16]: 82.2% | cell viability [17]: 47.7% | cell viability [18]: 12.5% | cell viability [19]: 9.32% | cell viability [20]: 8.93% | cell viability [21]: 8.3% | cell viability [22]: 75.8% | cell viability [23]: 91.7% | cell viability [24]: 94.1% | cell viability [25]: 102% | cell viability [26]: 94.5% | cell viability [27]: 81.6% | cell viability [28]: 48.9% | cell viability [29]: 17.1% | cell viability [30]: 12.1% | cell viability [31]: 12.2% | cell viability [32]: 11.6% | cell viability [33]: 80.6%

COc1ccc(CC2NCCc3cc(OC)c(OC)cc32)cc1OC (stereo not given)
cell viability [1]: 91.9% | cell viability [2]: 87.5% | cell viability [3]: 82.6% | cell viability [4]: 103% | cell viability [5]: 102% | cell viability [6]: 98.7% | cell viability [7]: 91.6% | cell viability [8]: 87.4% | cell viability [9]: 101% | cell viability [10]: 93.7% | cell viability [11]: 98.4% | cell viability [12]: 88.1% | cell viability [13]: 86.2% | cell viability [14]: 87% | cell viability [15]: 90.8% | cell viability [16]: 86.8% | cell viability [17]: 89.3% | cell viability [18]: 89.7% | cell viability [19]: 94.7% | cell viability [20]: 86.6% | cell viability [21]: 89.4% | cell viability [22]: 97.1% | cell viability [23]: 79.5% | cell viability [24]: 84.1% | cell viability [25]: 83.9% | cell viability [26]: 91.2% | cell viability [27]: 86.3% | cell viability [28]: 89.2% | cell viability [29]: 82.9% | cell viability [30]: 91% | cell viability [31]: 89.5% | cell viability [32]: 73.3% | cell viability [33]: 85.4%

CC[C@H](CC[C@@H](C)[C@H]1CC[C@H]2[C@@H]3C\C=C/4C[C@@H](O)CC[C@]4(C)[C@H]3CC[C@]12C)C(C)C
cell viability [1]: 97.3% | cell viability [2]: 126% | cell viability [3]: 123% | cell viability [4]: 117% | cell viability [5]: 131% | cell viability [6]: 124% | cell viability [7]: 114% | cell viability [8]: 107% | cell viability [9]: 95.6% | cell viability [10]: 55.5% | cell viability [11]: 35.6% | cell viability [12]: 103% | cell viability [13]: 114% | cell viability [14]: 113% | cell viability [15]: 106% | cell viability [16]: 108% | cell viability [17]: 115% | cell viability [18]: 102% | cell viability [19]: 103% | cell viability [20]: 96.1% | cell viability [21]: 92.4% | cell viability [22]: 22.3% | cell viability [23]: 105% | cell viability [24]: 120% | cell viability [25]: 114% | cell viability [26]: 107% | cell viability [27]: 116% | cell viability [28]: 107% | cell viability [29]: 97.3% | cell viability [30]: 102% | cell viability [31]: 93.5% | cell viability [32]: 72.5% | cell viability [33]: 26.3%
